Assay results published in article PMC9917201, “Enhanced Antibacterial Activity of Substituted Derivatives of NCR169C Peptide” (International Journal of Molecular Sciences, 2023).
≈ marks a conversion by molar mass, not a printed value. Where two headings read alike, the source gives them in different places. Non-standard residues stand in square brackets, D forms with d. Residues, ends and D or L forms follow the SMILES beside them. ξ: configuration not given here. Trp(5-F) = N[C@@H](Cc1c[nH]c2ccc(F)cc12)C(=O)O; dTrp(5-F) = N[C@H](Cc1c[nH]c2ccc(F)cc12)C(=O)O; ξTrp(5-OMe) = COc1ccc2[nH]cc(CC(N)C(=O)O)c2c1; ξTrp(7-aza) = NC(Cc1c[nH]c2ncccc12)C(=O)O

Tests used:
Format in all cases: cell-based
[1] = test system: Escherichia coli (ATCC 8739); conditions: ATCC 8739, 3 h, pH 7.4
Source text: (§1) The bacterial strains for the antimicrobial assay were obtained from the ATCC (American Type Culture Collection, Manassas, VA, USA) and NCTC (National Collection of Type Cultures, Salisbury, UK). Gram-negative strains were Pseudomonas aeruginosa (ATCC 27853), Escherichia coli (ATCC 8739, ATCC 35218, and ATCC 25922), Salmonella enterica (ATCC 13076), Klebsiella pneumoniae (NCTC 13440), Acinetobacter baumannii (ATCC 17978) and the Gram-positive strains were Enterococcus faecalis (ATCC 29212), Listeria monocytogenes (ATCC 19111), and Staphylococcus aureus (HNCMO112011 and ATCC 25923).
(§2) Determination of antibacterial activity for the peptides was carried out by utilizing a minimum bactericidal concentration (MBC) bioassay. Synthesized peptides were dissolved in sterile water and used from 25 to 0.125 μM in 2-fold dilution series and incubated with ~10^7 log phase bacteria in Potassium-Phosphate Buffer (PPB, pH: 7.4) for three hours as described earlier. After that, 5 μl of each sample was placed on LB agar and the growth of bacteria was monitored after overnight incubation at 37 °C. The lowest concentration of the antimicrobial agents that completely eliminated viable bacteria was considered the minimal bactericidal concentration (MBC).

[2] = test system: Staphylococcus aureus (HNCMO112011); conditions: HNCMO112011, 3 h, pH 7.4
Source text: as §1, §2

[3] = test system: Enterococcus faecalis (ATCC 29212); conditions: ATCC 29212, 3 h, pH 7.4
Source text: as §1, §2

[4] = test system: Klebsiella pneumoniae (NCTC 13440)
Source text: as §1, §2

[5] = test system: tested bacteria (ESKAPE pathogens, Listeria monocytogenes, Salmonella enterica)
Source text: as §1, §2

[6] = test system: Listeria monocytogenes (ATCC 19111); conditions: ATCC 19111, 3 h, pH 7.4
Source text: as §1, §2

[7] = test system: Salmonella enterica (ATCC 13076); conditions: ATCC 13076, 3 h, pH 7.4
Source text: as §1, §2

[8] = test system: Pseudomonas aeruginosa (ATCC 27853)
Source text: as §1, §2

[9] = test system: Acinetobacter baumannii (ATCC 17978); conditions: ATCC 17978, 3 h, pH 7.4
Source text: as §1, §2

[10] = summary over the tested bacterial species, 3 h in PPB pH 7.4

SMILES	Minimal bactericidal concentration (MBC) E. c. [1]	Minimal bactericidal concentration (MBC) S. a. [2]	Minimal bactericidal concentration (MBC) E. f. [3]	Minimal bactericidal concentration (MBC) K. p. ([4]; NCTC 13440, 3 h, pH 7.4)	MBC against most or all of the tested bacteria [5, 10]	Minimal bactericidal concentration (MBC) L. m. [6]	Minimal bactericidal concentration (MBC) S. e. [7]	Minimal bactericidal concentration (MBC) P. a. ([8]; ATCC 27853, 3 h, pH 7.4)	Minimal bactericidal concentration (MBC) A. b. [9]	Minimal bactericidal concentration (MBC) K. p. ([4]; Klebsiella pneumoniae NCTC 13440, ~10^7 log phase bacteria, 3 h in PPB pH 7.4, peptide 25 to 0.125 μM 2-fold series, plated on LB agar, overnight 37 °C)	MBC against most or all of the tested bacteria ([5]; 3 h, pH 7.4)	Minimal bactericidal concentration (MBC) P. a. ([8]; Pseudomonas aeruginosa ATCC 27853, ~10^7 log phase bacteria, 3 h in PPB pH 7.4, peptide 25 to 0.125 μM 2-fold series, plated on LB agar, overnight 37 °C)
CC[C@H](C)[C@H](NC(=O)[C@H](CCCCN)NC(=O)[C@H](Cc1ccccc1)NC(=O)[C@H](CC(C)C)NC(=O)[C@@H]1CCCN1C(=O)[C@H](CCCCN)NC(=O)[C@H](CCCCN)NC(=O)[C@H](CO)NC(=O)[C@@H](N)CCCCN)C(=O)N[C@H](Cc1c[nH]c2ccc(F)cc12)C(=O)N[C@@H](CCCCN)C(=O)N[C@@H](CO)C(=O)N[C@H](C(=O)N[C@@H](CCC(=O)O)C(=O)N[C@@H](CC(N)=O)C(=O)N[C@H](C(=O)N[C@@H](CO)C(=O)N[C@H](C(=O)N[C@@H](CC(C)C)C(=O)N[C@@H](Cc1c[nH]c2ccccc12)C(=O)N[C@@H](Cc1ccc(O)cc1)C(=O)N[C@@H](CCCCN)C(N)=O)C(C)C)C(C)C)C(C)C [NCR169C17–38C12,17/S-10W^5-F-D] (H-KSKKPLFKI[dTrp(5-F)]KSVENVSVLWYK-NH2; N-terminus assumed)	1.6 µM (≈ 4.36 µg/mL)	3.1 µM (≈ 8.45 µg/mL)	1.6 µM (≈ 4.36 µg/mL)	3.1 µM (≈ 8.45 µg/mL)	1.6—6.3 µM	6.3 µM (≈ 17.2 µg/mL)	3.1 µM (≈ 8.45 µg/mL)	3.1 µM (≈ 8.45 µg/mL)	1.6 µM (≈ 4.36 µg/mL)	–	–	–
CC[C@H](C)[C@H](NC(=O)[C@H](CCCCN)NC(=O)[C@H](Cc1ccccc1)NC(=O)[C@H](CC(C)C)NC(=O)[C@@H]1CCCN1C(=O)[C@H](CCCCN)NC(=O)[C@H](CCCCN)NC(=O)[C@H](CO)NC(=O)[C@@H](N)CCCCN)C(=O)N[C@@H](Cc1c[nH]c2ccc(F)cc12)C(=O)N[C@@H](CCCCN)C(=O)N[C@@H](CO)C(=O)N[C@H](C(=O)N[C@@H](CCC(=O)O)C(=O)N[C@@H](CC(N)=O)C(=O)N[C@H](C(=O)N[C@@H](CO)C(=O)N[C@H](C(=O)N[C@@H](CC(C)C)C(=O)N[C@@H](Cc1c[nH]c2ccccc12)C(=O)N[C@@H](Cc1ccc(O)cc1)C(=O)N[C@@H](CCCCN)C(N)=O)C(C)C)C(C)C)C(C)C [NCR169C17–38C12,17/S-10W^5-F-L] (H-KSKKPLFKI[Trp(5-F)]KSVENVSVLWYK-NH2; N-terminus assumed)	1.6 µM (≈ 4.36 µg/mL)	1.6 µM (≈ 4.36 µg/mL)	1.6 µM (≈ 4.36 µg/mL)	3.1 µM (≈ 8.45 µg/mL)	1.6—6.3 µM	1.6 µM (≈ 4.36 µg/mL)	1.6 µM (≈ 4.36 µg/mL)	1.6 µM (≈ 4.36 µg/mL)	1.6 µM (≈ 4.36 µg/mL)	3.1 µM (≈ 8.45 µg/mL)	1.6 µM	–
CC[C@H](C)[C@H](NC(=O)[C@H](CCCCN)NC(=O)[C@H](Cc1ccccc1)NC(=O)[C@H](CC(C)C)NC(=O)[C@@H]1CCCN1C(=O)[C@H](CCCCN)NC(=O)[C@H](CCCCN)NC(=O)[C@H](CO)NC(=O)[C@@H](N)CCCCN)C(=O)NC(Cc1c[nH]c2ccc(OC)cc12)C(=O)N[C@@H](CCCCN)C(=O)N[C@@H](CO)C(=O)N[C@H](C(=O)N[C@@H](CCC(=O)O)C(=O)N[C@@H](CC(N)=O)C(=O)N[C@H](C(=O)N[C@@H](CO)C(=O)N[C@H](C(=O)N[C@@H](CC(C)C)C(=O)N[C@@H](Cc1c[nH]c2ccccc12)C(=O)N[C@@H](Cc1ccc(O)cc1)C(=O)N[C@@H](CCCCN)C(N)=O)C(C)C)C(C)C)C(C)C (stereo partly shown) [NCR169C17–38C12,17/S-10W^5-MeO II] (H-KSKKPLFKI[ξTrp(5-OMe)]KSVENVSVLWYK-NH2; N-terminus assumed)	3.1 µM (≈ 8.49 µg/mL)	3.1 µM (≈ 8.49 µg/mL)	3.1 µM (≈ 8.49 µg/mL)	3.1 µM (≈ 8.49 µg/mL)	–	3.1 µM (≈ 8.49 µg/mL)	3.1 µM (≈ 8.49 µg/mL)	–	3.1 µM (≈ 8.49 µg/mL)	–	3.1 µM	25 µM (≈ 68.4 µg/mL)
CC[C@H](C)[C@H](NC(=O)[C@H](CCCCN)NC(=O)[C@H](Cc1ccccc1)NC(=O)[C@H](CC(C)C)NC(=O)[C@@H]1CCCN1C(=O)[C@H](CCCCN)NC(=O)[C@H](CCCCN)NC(=O)[C@H](CO)NC(=O)[C@@H](N)CCCCN)C(=O)NC(Cc1c[nH]c2ccc(OC)cc12)C(=O)N[C@@H](CCCCN)C(=O)N[C@@H](CO)C(=O)N[C@H](C(=O)N[C@@H](CCC(=O)O)C(=O)N[C@@H](CC(N)=O)C(=O)N[C@H](C(=O)N[C@@H](CO)C(=O)N[C@H](C(=O)N[C@@H](CC(C)C)C(=O)N[C@@H](Cc1c[nH]c2ccccc12)C(=O)N[C@@H](Cc1ccc(O)cc1)C(=O)N[C@@H](CCCCN)C(N)=O)C(C)C)C(C)C)C(C)C (stereo partly shown) [NCR169C17–38C12,17/S-10W^5-MeO I] (H-KSKKPLFKI[ξTrp(5-OMe)]KSVENVSVLWYK-NH2; N-terminus assumed)	3.1 µM (≈ 8.49 µg/mL)	1.6 µM (≈ 4.38 µg/mL)	1.6 µM (≈ 4.38 µg/mL)	1.6 µM (≈ 4.38 µg/mL)	–	1.6 µM (≈ 4.38 µg/mL)	1.6 µM (≈ 4.38 µg/mL)	–	1.6 µM (≈ 4.38 µg/mL)	–	1.6 µM	–
CC[C@H](C)[C@H](NC(=O)[C@H](CCCCN)NC(=O)[C@H](Cc1ccccc1)NC(=O)[C@H](CC(C)C)NC(=O)[C@@H]1CCCN1C(=O)[C@H](CCCCN)NC(=O)[C@H](CCCCN)NC(=O)[C@H](CO)NC(=O)[C@@H](N)CCCCN)C(=O)NC(Cc1c[nH]c2ncccc12)C(=O)N[C@@H](CCCCN)C(=O)N[C@@H](CO)C(=O)N[C@H](C(=O)N[C@@H](CCC(=O)O)C(=O)N[C@@H](CC(N)=O)C(=O)N[C@H](C(=O)N[C@@H](CO)C(=O)N[C@H](C(=O)N[C@@H](CC(C)C)C(=O)N[C@@H](Cc1c[nH]c2ccccc12)C(=O)N[C@@H](Cc1ccc(O)cc1)C(=O)N[C@@H](CCCCN)C(N)=O)C(C)C)C(C)C)C(C)C (stereo partly shown) [NCR169C17–38C12,17/S-10W^7-Aza II] (H-KSKKPLFKI[ξTrp(7-aza)]KSVENVSVLWYK-NH2; N-terminus assumed)	3.1 µM (≈ 8.4 µg/mL)	3.1 µM (≈ 8.4 µg/mL)	3.1 µM (≈ 8.4 µg/mL)	6.3 µM (≈ 17.1 µg/mL)	–	3.1 µM (≈ 8.4 µg/mL)	3.1 µM (≈ 8.4 µg/mL)	3.1 µM (≈ 8.4 µg/mL)	6.3 µM (≈ 17.1 µg/mL)	–	3.1 µM	–
CC[C@H](C)[C@H](NC(=O)[C@H](CCCCN)NC(=O)[C@H](Cc1ccccc1)NC(=O)[C@H](CC(C)C)NC(=O)[C@@H]1CCCN1C(=O)[C@H](CCCCN)NC(=O)[C@H](CCCCN)NC(=O)[C@H](CO)NC(=O)[C@@H](N)CCCCN)C(=O)NC(Cc1c[nH]c2ncccc12)C(=O)N[C@@H](CCCCN)C(=O)N[C@@H](CO)C(=O)N[C@H](C(=O)N[C@@H](CCC(=O)O)C(=O)N[C@@H](CC(N)=O)C(=O)N[C@H](C(=O)N[C@@H](CO)C(=O)N[C@H](C(=O)N[C@@H](CC(C)C)C(=O)N[C@@H](Cc1c[nH]c2ccccc12)C(=O)N[C@@H](Cc1ccc(O)cc1)C(=O)N[C@@H](CCCCN)C(N)=O)C(C)C)C(C)C)C(C)C (stereo partly shown) [NCR169C17–38C12,17/S-10W^7-Aza I] (H-KSKKPLFKI[ξTrp(7-aza)]KSVENVSVLWYK-NH2; N-terminus assumed)	3.1 µM (≈ 8.4 µg/mL)	3.1 µM (≈ 8.4 µg/mL)	6.3 µM (≈ 17.1 µg/mL)	6.3 µM (≈ 17.1 µg/mL)	–	3.1 µM (≈ 8.4 µg/mL)	3.1 µM (≈ 8.4 µg/mL)	3.1 µM (≈ 8.4 µg/mL)	3.1 µM (≈ 8.4 µg/mL)	–	3.1 µM	–
